Source: patent US6281342A, “Pradimicin compounds” (Bristol-Myers Squibb Company, priority 1994, dated 2001)
In brackets after ≈: the same amount, converted by molar mass. Like-named read-outs stand apart in the source and are kept apart here.

Legend:
[1] = system: Cryptococcus neoformans D49; test: MIC, two-fold agar dilution, C. neoformans D49; type: cell-based; details: YMA pH 7.0, 28° C., 40 hours
Description: (§1) Minimum inhibitory concentrations (MICs) of nine 4'-N-substituted pradimicin derivatives were determined by two-fold agar dilution method on phosphate-buffered yeast morphology agar (YMA, pH 7.0, Difco Laboratories). A 5-μl of fungal cell suspension containing 2×10^6 cells/ml (2×10^7 cells/ml for Trichophyton mentagrophytes) were spotted on the surface of the agar plates containing test compound. MICs were recorded after 40-hour incubation at 28° C. except for T. mentagrophytes, which required 60-hour incubation to produce visually evaluable growth on the drug-free control plates and were defined as the lowest antibiotic concentrations showing no growth or less than five discrete colonies per spot.
(§2) Medium: yeast morphology agar + 1/15 M phosphate buffer (pH 7.0)
(§3) Incubation conditions: 28° C., 40 hours (C. albicans ATCC 38247 & T.
(§4) Medium: Yeast morphology agar + 1/15 phosphate buffer (pH 7.0).

Candida albicans A9540 [2] = test: animal or person; type: in vivo, male ICR mice infected with Candida albicans A9540
Description: (§5) The in vivo therapeutic efficacies of seven 4'-N-substituted pradimicin derivatives, KHM-1, KHM-2, KHM-3, KHM-4, KHM-5, KHM-6 and KHM-7 were evaluated in the mouse infected with Candida albicans A9540 and Aspergillus fumigatusIAM 2034. Groups of five specific-pathogen-free male ICR mice weighing 20-25 g at each dose level were intravenously infected with approximately 10 times the 50% lethal dose of C. albicans A9540 (1×10^6 cells/mouse) or A. fumigatus IAM 2034 (1×10^7 cells/mouse). Immediately after the fungal infection, test compounds dissolved with 10% DMSO in distilled water were intravenously given to the mouse at the dosed volume of 0.1 ml/10 g of body weight. […] Untreated control animals died 7 to 13 days post-infection.

Candida albicans A9540 [3] = test: MIC, two-fold agar dilution, C. albicans A9540; type: cell-based
Description: as §1, §2, §3, §4

[4] = system: Aspergillus fumigatus IAM 2034; test: MIC, two-fold agar dilution, A. fumigatus IAM 2034; type: cell-based; details: IAM2034
Description: as §1, §2, §3, §4

Candida albicans 83-2-14 = test: MIC, two-fold agar dilution, C. albicans 83-2-14; type: cell-based; details: 83214, YMA pH 7.0, 28° C., 40 hours
Description: as §1, §2, §3, §4

[5] = system: Trichophyton mentagrophytes #4329; test: MIC, two-fold agar dilution, T. mentagrophytes #4329; type: cell-based
Description: as §1, §2, §3
(§6) mentagrophytes #4329: 28° C., 60 hours).
as §4

[6] = system: Saccharomyces cerevisiae ATCC 9763; test: MIC, two-fold agar dilution, S. cerevisiae ATCC 9763; type: cell-based; details: ATCC9763, YMA pH 7.0, 28° C., 40 hours
Description: as §1, §2, §3, §4

[7] = system: Cryptococcus neoformans IAM 4514; test: MIC, two-fold agar dilution, C. neoformans IAM 4514; type: cell-based; details: IAM4514
Description: as §1, §2, §3, §4

[8] = system: Candida albicans ATCC 38247; test: MIC, two-fold agar dilution, C. albicans ATCC 38247; type: cell-based; details: ATCC38247, YMA pH 7.0, 28° C., 60 hours (table footnote)
Description: as §1, §2, §3, §6, §4

[9] = system: Candida albicans ATCC 32354; test: MIC, two-fold agar dilution, C. albicans ATCC 32354; type: cell-based; details: ATCC32354, YMA pH 7.0, 28° C., 40 hours
Description: as §1, §2, §3, §4

[10] = system: Candida tropicalis IFO 10241; test: MIC, two-fold agar dilution, C. tropicalis IFO 10241; type: cell-based; details: IFO10241, YMA pH 7.0, 28° C., 40 hours
Description: as §1, §2, §3, §4

[11] = system: Aspergillus fumigatus IAM 2034; test: Therapeutic efficacy in Aspergillus fumigatus systemic infection in mice; type: in vivo, male ICR mice infected with Aspergillus fumigatus IAM 2034; details: for S/T (No. of survivors/tested): A. fumigatus, mice, 20th day post-infection
Description: as §5

Candida tropicalis 85-8 = test: MIC, two-fold agar dilution, C. tropicalis 85-8; type: cell-based; details: 858, YMA pH 7.0, 28° C., 40 hours
Description: as §1, §2, §3, §4

[12] = system: Candida albicans IAM 4888; test: MIC, two-fold agar dilution, C. albicans IAM 4888; type: cell-based; details: IAM4888, YMA pH 7.0, 28° C., 40 hours
Description: as §1, §2, §3, §4

[13] = Candida albicans, A9540, 480 h, Table 2, C. albicans, mice, iv, 95% confidence limits in parentheses, read-out: PD50 (50% protection dose)
[14] = Candida albicans A9540, YMA pH 7.0, 28° C., 40 hours, read-out: MIC
[15] = Table 3, Candida albicans A9540, YMA, read-out: MIC Ca-4
[16] = Aspergillus fumigatus IAM 2034, YMA pH 7.0, 28° C., 40 hours, read-out: MIC
[17] = Table 3, Aspergillus fumigatus IAM 2034, YMA, read-out: MIC Af-3
[18] = Table 3, Trichophyton mentagrophytes #4329, YMA, read-out: MIC TM-4
[19] = Trichophyton mentagrophytes #4329, YMA pH 7.0, 28° C., 60 hours, read-out: MIC
[20] = Cryptococcus neoformans IAM 4514, YMA pH 7.0, 28° C., 40 hours, read-out: MIC
[21] = Table 3, Cryptococcus neoformans IAM 4514, YMA, read-out: MIC Cn-2

COc1cc(O)c2c(c1)C(=O)c1c(cc3c(c1O)-c1c(cc(C)c(C(=O)N[C@H](C)C(=O)O)c1O)[C@H](O[C@@H]1O[C@H](C)[C@H](N(C)C#N)[C@H](O[C@@H]4OC[C@@H](O)[C@H](O)[C@H]4O)[C@H]1O)[C@H]3O)C2=O [KHM-1, 4'-N-Cyanogradimicin A]
MIC [1]: 3.1 µg/mL (≈ 3.58 µM)
S/T (No. of survivors/tested) (Candida albicans A9540 [2]; C. albicans, mice, 6.3 mg/kg iv, 20th day post-infection): 1/5
S/T (No. of survivors/tested) (Candida albicans A9540 [2]; C. albicans, mice, 12.5 mg/kg iv, 20th day post-infection): 3/5
S/T (No. of survivors/tested) (Candida albicans A9540 [2]; C. albicans, mice, 25 mg/kg iv, 20th day post-infection): 4/5
S/T (No. of survivors/tested) (Candida albicans A9540 [2]; C. albicans, mice, 50 mg/kg iv, 20th day post-infection): 5/5
ED50 (Candida albicans A9540 [2]; [13]): 13 mg/kg
MIC (Candida albicans A9540 [3]; [14]): 3.1 µg/mL (≈ 3.58 µM)
MIC (Candida albicans A9540 [3]; [15]): 3.1 µg/mL (≈ 3.58 µM)
MIC [4, 16]: 12.5 µg/mL (≈ 14.4 µM)
MIC [4, 17]: 12.5 µg/mL (≈ 14.4 µM)
MIC (Candida albicans 83-2-14): 3.1 µg/mL (≈ 3.58 µM)
MIC [5, 18]: 25 µg/mL (≈ 28.9 µM)
MIC [5, 19]: 25 µg/mL (≈ 28.9 µM)
MIC [6]: 1.6 µg/mL (≈ 1.85 µM)
MIC [7, 20]: 3.1 µg/mL (≈ 3.58 µM)
MIC [7, 21]: 3.1 µg/mL (≈ 3.58 µM)
MIC [8]: 1.6 µg/mL (≈ 1.85 µM)
MIC [9]: 3.1 µg/mL (≈ 3.58 µM)
MIC [10]: 12.5 µg/mL (≈ 14.4 µM)
S/T (No. of survivors/tested) ([11]; 6.3 mg/kg iv): 0.5
S/T (No. of survivors/tested) ([11]; 12.5 mg/kg iv): 2/5
S/T (No. of survivors/tested) ([11]; 25 mg/kg iv): 0/5
S/T (No. of survivors/tested) ([11]; 50 mg/kg iv): 1/5
ED50 ([11]; Aspergillus fumigatus, IAM2034, iv, 480 h, read-out: PD50 (50% protection dose)): > 50 mg/kg
ED50 ([11]; IAM2034, 480 h, Table 3, Aspergillus fumigatus IAM 2034, iv, read-out: PD50 (mice) Af-3): > 50 mg/kg
MIC (Candida tropicalis 85-8): 12.5 µg/mL (≈ 14.4 µM)
MIC [12]: 3.1 µg/mL (≈ 3.58 µM)

COc1cc(O)c2c(c1)C(=O)c1c(cc3c(c1O)-c1c(cc(C)c(C(=O)N[C@H](C)C(=O)O)c1O)[C@H](O[C@@H]1O[C@H](C)[C@H](NC(=N)N)[C@H](O[C@@H]4OC[C@@H](O)[C@H](O)[C@H]4O)[C@H]1O)[C@H]3O)C2=O [KHM-8, 4'-Guanidinopradimicin C]
MIC [1]: 6.3 µg/mL (≈ 7.25 µM)
MIC (Candida albicans A9540 [3]; [14]): 12.5 µg/mL (≈ 14.4 µM)
MIC (Candida albicans A9540 [3]; [15]): 12.5 µg/mL (≈ 14.4 µM)
MIC [4, 16]: 3.1 µg/mL (≈ 3.57 µM)
MIC [4, 17]: 3.1 µg/mL (≈ 3.57 µM)
MIC (Candida albicans 83-2-14): > 100 µg/mL
MIC [5, 18]: 3.1 µg/mL (≈ 3.57 µM)
MIC [5, 19]: 3.1 µg/mL (≈ 3.57 µM)
MIC [6]: 25 µg/mL (≈ 28.8 µM)
MIC [7, 20]: 6.3 µg/mL (≈ 7.25 µM)
MIC [7, 21]: 6.3 µg/mL (≈ 7.25 µM)
MIC [9]: 12.5 µg/mL (≈ 14.4 µM)
MIC [10]: > 100 µg/mL
MIC (Candida tropicalis 85-8): > 100 µg/mL
MIC [12]: 12.5 µg/mL (≈ 14.4 µM)

COc1cc(O)c2c(c1)C(=O)c1c(cc3c(c1O)-c1c(cc(C)c(C(=O)N[C@H](C)C(=O)O)c1O)[C@H](O[C@@H]1O[C@H](C)[C@H](NC=N)[C@H](O[C@@H]4OC[C@@H](O)[C@H](O)[C@H]4O)[C@H]1O)[C@H]3O)C2=O [KHM-9, 4'-Amidinopradimicin C]
MIC [1]: 12.5 µg/mL (≈ 14.6 µM)
MIC (Candida albicans A9540 [3]; [14]): 12.5 µg/mL (≈ 14.6 µM)
MIC (Candida albicans A9540 [3]; [15]): 12.5 µg/mL (≈ 14.6 µM)
MIC [4, 16]: 1.6 µg/mL (≈ 1.87 µM)
MIC [4, 17]: 1.6 µg/mL (≈ 1.87 µM)
MIC (Candida albicans 83-2-14): 12.5 µg/mL (≈ 14.6 µM)
MIC [5, 18]: 3.1 µg/mL (≈ 3.63 µM)
MIC [5, 19]: 3.1 µg/mL (≈ 3.63 µM)
MIC [6]: 1.6 µg/mL (≈ 1.87 µM)
MIC [7, 20]: 3.1 µg/mL (≈ 3.63 µM)
MIC [7, 21]: 3.1 µg/mL (≈ 3.63 µM)
MIC [9]: 6.3 µg/mL (≈ 7.38 µM)
MIC [10]: > 100 µg/mL
MIC (Candida tropicalis 85-8): 50 µg/mL (≈ 58.6 µM)
MIC [12]: 6.3 µg/mL (≈ 7.38 µM)

COc1cc(O)c2c(c1)C(=O)c1c(cc3c(c1O)-c1c(cc(C)c(C(=O)N[C@H](C)C(=O)O)c1O)[C@H](O[C@@H]1O[C@H](C)[C@H](N)[C@H](O[C@@H]4OC[C@@H](O)[C@H](O)[C@H]4O)[C@H]1O)[C@H]3O)C2=O [Pradimicin C]
MIC [1]: 0.8 µg/mL (≈ 0.968 µM)
ED50 (Candida albicans A9540 [2]; 480 h, Table 3, Candida albicans A9540, iv, read-out: PD50 (mice) Ca-4): 14 mg/kg
responders at 6.3 mg/kg (Candida albicans A9540 [2]; Candida albicans, A9540, 480 h, C. albicans, mice, 6.3 mg/kg iv, 20th day post-infection, read-out: S/T (No. of survivors/tested) (converted)): 40%
responders at 12.5 mg/kg (Candida albicans A9540 [2]; Candida albicans, A9540, 480 h, C. albicans, mice, 12.5 mg/kg iv, 20th day post-infection, read-out: S/T (No. of survivors/tested) (converted)): 40%
responders at 25 mg/kg (Candida albicans A9540 [2]; Candida albicans, A9540, 480 h, C. albicans, mice, 25 mg/kg iv, 20th day post-infection, read-out: S/T (No. of survivors/tested) (converted)): 100%
responders at 50 mg/kg (Candida albicans A9540 [2]; Candida albicans, A9540, 480 h, C. albicans, mice, 50 mg/kg iv, 20th day post-infection, read-out: S/T (No. of survivors/tested) (converted)): 0%
ED50 (Candida albicans A9540 [2]; [13]): 13 mg/kg
MIC (Candida albicans A9540 [3]; [14]): 25 µg/mL (≈ 30.2 µM)
MIC (Candida albicans A9540 [3]; [15]): 25 µg/mL (≈ 30.2 µM)
MIC [4, 16]: 3.1 µg/mL (≈ 3.75 µM)
MIC [4, 17]: 3.1 µg/mL (≈ 3.75 µM)
MIC (Candida albicans 83-2-14): 50 µg/mL (≈ 60.5 µM)
MIC [5, 18]: 3.1 µg/mL (≈ 3.75 µM)
MIC [5, 19]: 3.1 µg/mL (≈ 3.75 µM)
MIC [6]: 6.3 µg/mL (≈ 7.62 µM)
MIC [7, 20]: 0.8 µg/mL (≈ 0.968 µM)
MIC [7, 21]: 0.8 µg/mL (≈ 0.968 µM)
MIC [8]: 3.1 µg/mL (≈ 3.75 µM)
MIC [9]: 6.3 µg/mL (≈ 7.62 µM)
MIC [10]: 100 µg/mL (≈ 121 µM)
MIC (Candida tropicalis 85-8): 100 µg/mL (≈ 121 µM)
